Measured values: patent US20110065760A1, “COMPOUNDS FOR THE INHIBITION OF ROTAMASES AND USE THEREOF” (Jerini AG, priority 2002, published 2011)
Where two headings read alike, the source gives them in different places.

Key:
[1] = molecular target: EcParvulin (Escherichia coli, UniProt P0A9L5); assay: protease-coupled PPIase assay, EcParvulin; assay type: biochemical
[2] = molecular target: LpCyp18 (Legionella pneumophila, UniProt Q5ZRZ4); assay: biochemical; details: IC50 class, Target T-4 (LpCyp18)
[3] = molecular target: hCyp18 (Homo sapiens, UniProt P62937); assay: protease-coupled PPIase assay, hCyp18; assay type: biochemical; details: 10 nM hCyp18, substrate Suc-Ala-Phe-Pro-Phe-pNA, chymotrypsin, pH 7.8, 6° C.; read-out: IC50 class, Target T-3 (hCyp18)
[4] = molecular target: hPin1 (Homo sapiens, UniProt Q13526); assay: protease-coupled PPIase assay, hPin1; assay type: biochemical; details: 6 nM hPin1, substrate Ac-Ala-Ala-Ser(PO3H2)-Pro-Arg-pNA, trypsin, pH 7.8, 6° C.; read-out: IC50 class, Target T-1 (hPin1)
[5] = molecular target: hFKBP12 (Homo sapiens, UniProt P62942); assay: protease-coupled PPIase assay, hFKBP12; assay type: biochemical; details: 20 nM hFKBP12, substrate Suc-Ala-Phe-Pro-Phe-pNA, chymotrypsin, pH 7.8, 6° C.; read-out: IC50 class, Target T-2 (hFKBP12)
[6] = molecular target: T1, Papain (Carica papaya, UniProt P00784); assay: papain assay; assay type: biochemical; details: 16 μg/ml papain, 2 mM Bz-DL-Arg-pNA, pH 6.5, 30° C., 30 min incubation; read-out: IC50 class, Target T-6 (Papain)
T1 sequence (P00784 134-345): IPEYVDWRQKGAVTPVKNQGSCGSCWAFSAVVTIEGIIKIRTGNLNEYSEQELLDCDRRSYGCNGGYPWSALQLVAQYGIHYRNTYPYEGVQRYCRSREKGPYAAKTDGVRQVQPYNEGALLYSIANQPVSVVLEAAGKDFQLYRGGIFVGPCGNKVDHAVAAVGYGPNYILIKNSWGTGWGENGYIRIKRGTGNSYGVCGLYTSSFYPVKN
Experimental: In order to investigate the impact of some of the inventive compounds on the activity of key proteases the following assay was performed: Protease activities were measured spectrophotometrically at 30° C. according to Schomburg and Salzmann (Schomburg, B.; Salzmann M. GBF: Enzyme Handbook. Springer Verlag, Berlin Heidelberg, 1991) and Bergmeyer et al. (Bergmeyer, H. U.; Bergmeyer, J.; Graβl, M. Methods of Enzymatic Analysis, Vol. V Enzymes 3: Peptides, Proteinases and Their Inhibitors. pp 55-371, VCH, Weinheim, 1988). The release of 4-nitroaniline was determined at 390 nm with a Spectramax Plus UV/Vis spectrophotometer (Molecular Devices). The cathepsin B assay was performed in a reaction mixture containing 0.2 μg/ml cathepsin B, 2 mM Z-Arg-Arg-pNA in 88 mM KH2PO4, 12 mM Na2HPO4, 1.33 mM EDTA, 0.03% Brij 35 (pH 5.8). The trypsin assay was carried out in a reaction mixture containing 0.1 μg/ml trypsin and 120 μM Ac-Ala-Ala-Ser(PO3H2)-Pro-Arg-pNA in 35 mM HEPES (pH 7.8) and the papain assay in a mixture consisting of 16 μg/ml papain and 2 mM Bz-DL-Arg-pNA in 10 mM Na2HPO4, 2 mM L-Cys, 5 mM EDTA (pH 6.5). In general, reactions were started by addition of peptide substrate after a 30 min incubation of 1-100 μM effector with given concentrations of enzyme.

[7] = 20 nM EcParvulin, substrate Suc-Ala-Phe-Pro-Phe-pNA, chymotrypsin, pH 7.8, 6° C., read-out: IC50 class, Target T-5 (EcParv)

Chain of hCyp18 (P62937 whole entry): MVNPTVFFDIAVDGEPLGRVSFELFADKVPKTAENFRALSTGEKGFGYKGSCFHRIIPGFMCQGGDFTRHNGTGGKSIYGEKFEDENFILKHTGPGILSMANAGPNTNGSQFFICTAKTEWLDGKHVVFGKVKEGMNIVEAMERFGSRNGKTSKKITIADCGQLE
Chain of EcParvulin (P0A9L5 whole entry): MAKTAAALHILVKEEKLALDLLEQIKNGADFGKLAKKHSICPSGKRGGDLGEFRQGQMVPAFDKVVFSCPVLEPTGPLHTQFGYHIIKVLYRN
Chain of LpCyp18 (Q5ZRZ4 1-164): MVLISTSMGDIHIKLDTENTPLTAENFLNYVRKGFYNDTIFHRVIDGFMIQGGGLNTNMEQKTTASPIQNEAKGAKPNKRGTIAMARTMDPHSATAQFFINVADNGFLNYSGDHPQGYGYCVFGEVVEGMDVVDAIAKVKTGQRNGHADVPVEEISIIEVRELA
Chain of hFKBP12 (P62942 whole entry): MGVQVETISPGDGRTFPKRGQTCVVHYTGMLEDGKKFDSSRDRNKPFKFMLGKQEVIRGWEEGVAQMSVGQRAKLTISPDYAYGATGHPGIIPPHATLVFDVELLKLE
Chain of hPin1 (Q13526 whole entry): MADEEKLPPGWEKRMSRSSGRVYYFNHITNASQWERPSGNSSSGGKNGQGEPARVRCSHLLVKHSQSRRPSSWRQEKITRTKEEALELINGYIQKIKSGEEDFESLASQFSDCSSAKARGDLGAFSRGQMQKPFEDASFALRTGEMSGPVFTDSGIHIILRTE

SMILES | IC50 [1, 7] [µM] | IC50 [2] [µM] | IC50 [3] [µM] | IC50 [4] [µM] | IC50 [5] [µM] | IC50 [1] [µM] | IC50 [6] [µM]
Oc1c(Cl)cc(Cl)cc1NCc1ccco1 [Compound 647] | > 100 | > 100 | > 100 | 1 to 10 | > 100 |  | 
CCCCCNC(=O)Nc1ccc(C)cc1O [Compound 643] |  | > 100 | > 100 | 10 to 50 | > 100 | > 100 | > 100
Cc1c(Cl)cc(NC(=O)Nc2ccccc2)c(O)c1Cl [Compound 120] |  | > 100 | 10 to 50 | 10 to 50 | 50 to 100 |  | 
Oc1c(Cl)cc(Cl)cc1NCc1cccc(Oc2ccc(Cl)cc2)c1 [Compound 482] | > 100 | > 100 | 10 to 50 | 1 to 10 | > 100 |  | 
CC(C)(C)NC(=O)Nc1cc(-c2nc3ccccc3s2)cc(Cl)c1O [Compound 636] |  |  |  | < 1 |  |  | 
Cc1c(Cl)cc(NC(=S)NC(C)(C)CC(C)(C)C)c(O)c1Cl [Compound 257] |  |  |  | < 1 |  |  | 
O=C(Nc1cc(Br)cc(F)c1O)NC12CC3CC(CC(C3)C1)C2 [Compound 142] |  |  |  | < 1 |  |  | 
O=[N+]([O-])c1ccc(Sc2ccccc2CNc2ccc(F)c(F)c2O)cc1 [Compound 400] |  |  |  | < 1 |  |  | 
CC(C)(C)NC(=O)Nc1cc(NC(=O)NC2CCCCC2)cc(Cl)c1O [Compound 605] | 1 to 10 | > 100 | 10 to 50 | < 1 | > 100 |  | 
Cc1c(Cl)cc(NCc2ccccc2Sc2ccc(Cl)cc2)c(O)c1Cl [Compound 371] |  | > 100 | 10 to 50 | < 1 | > 100 | 10 to 50 | > 100
Cc1c(Cl)cc(NC(=O)NC23CC4CC(CC(C4)C2)C3)c(O)c1Cl [Compound 118] |  | 10 to 50 | 10 to 50 | 1 to 10 | 50 to 100 | 1 to 10 | > 100
Cc1c(Cl)cc(NC(=O)c2ccc(-c3ccccc3)cc2)c(O)c1Cl [Compound 644] |  |  |  |  |  |  | > 100
Oc1c(Cl)cc(-c2nc3ccccc3s2)cc1NC(=S)NCCc1ccccc1 [Compound 638] |  |  |  | 1 to 10 |  |  | 
Cc1c(Cl)cc(NCc2ccccc2)c(O)c1Cl [Compound 655] | 10 to 50 | > 100 | > 100 | 10 to 50 | > 100 |  | 
O=C(CCc1ccccc1)Nc1cc(Cl)c(O)c(Cl)c1 [Compound 1293] | 10 to 50 | > 100 | > 100 | 1 to 10 | > 100 |  | 
O=C(Nc1cc(Cl)c(O)c(Cl)c1)NC12CC3CC(CC(C3)C1)C2 [Compound 719] |  | 10 to 50 | 50 to 100 | < 1 | > 100 |  | 
Cc1c(Cl)cc(NC(=S)Nc2ccccc2C(F)(F)F)c(O)c1Cl [Compound 266] | 1 to 10 | > 100 | > 100 | < 1 | > 100 |  | 
Cc1c(Cl)cc(NCc2c(F)cccc2Cl)c(O)c1Cl [Compound 512] | 10 to 50 | > 100 | 50 to 100 | 10 to 50 | > 100 |  | 
Oc1c(Cl)cc(NC(=S)Nc2ccccc2C(F)(F)F)cc1Cl [Compound 894] | 1 to 10 | > 100 | > 100 | < 1 | > 100 |  | 
O=C(Nc1cc(Cl)c(O)c(Cl)c1)c1ccccc1 [Compound 1298] | 10 to 50 | > 100 | > 100 | < 1 | > 100 |  | 
CC(C)(C)NC(=O)Nc1cc(Br)cc(F)c1O [Compound 127] |  |  |  | 1 to 10 |  |  | 
